Experimental data published in PubChem BioAssay AID792 (PCMD, 2007).
Inconclusive results are not listed. Calls of active or inactive are those of the source. The rule behind the calls is not given here.

Target: S. cerevisiae eIF2B mutant, luciferase reporter luminescence
Test: potency on yeast eIF2B luminescence signal – S. cerevisiae, mutant, wild-type, growth, dose response (AID 792)
[1] = S. cerevisiae wild-type, luminescence
[2] = measured here: mutant yeast growth

SMILES | IC50 | IC50 [1] | IC50 [2]
COc1ccc(NC(=O)N2CCc3ccccc32)cc1 | inactive | 6.14 µM | > 100 µM
Fc1ccc2nc(Nc3nc4c(s3)CCCC4)sc2c1 | > 100 µM (inactive) | – | > 100 µM
COc1ccccc1CNC(=O)CN1CCC(NC(=O)c2ccccc2F)CC1 | > 100 µM (inactive) | – | > 100 µM
CCc1ccc2c(c1)C1(NN=C(c3ccc(C)cc3)S1)C(=O)N2 (stereo not drawn) | inactive | > 100 µM | 99 µM
Cc1cc2n(n1)SC(Nc1ccccc1)N2 (stereo not drawn) | > 100 µM (inactive) | – | > 100 µM
O=C(Nc1cccnc1)c1ccccc1Oc1ccccc1 | > 100 µM (inactive) | – | > 100 µM
COc1cccc(Oc2cn[nH]c2-c2ccc(OC)cc2O)c1 | inactive | 44.1 µM | 40.8 µM
CCCc1nc(SCC(=O)Nc2cc(C)on2)c2ccccc2n1 | > 100 µM (inactive) | – | > 100 µM
CCOC(=O)N1CCN(C(=O)CN(Cc2ccc(Cl)cc2)S(=O)(=O)c2ccc(C)cc2)CC1 | > 100 µM (inactive) | – | > 100 µM
Cc1c(C(=O)N2CCN(c3ccccc3F)CC2)sc2nc(-c3ccccc3)cn12 | > 100 µM (inactive) | – | > 100 µM
Cn1ncc(C#N)c1/N=C/N1CCOCC1 | > 100 µM (inactive) | – | > 100 µM
COc1cc(S(=O)(=O)N(Cc2cccnc2)Cc2ccco2)ccc1-n1cnnn1 | > 100 µM (inactive) | > 100 µM | > 100 µM
Cc1nn(-c2ccccc2)c(Cl)c1/C=N/Nc1ccc(S(=O)(=O)Nc2ccccc2C(=O)O)cc1[N+](=O)[O-] | > 100 µM (inactive) | – | > 100 µM
CCOCC(=O)Nc1cccc(NC(C)=O)c1 | > 100 µM (inactive) | – | > 100 µM
CCc1ccc2oc(-c3cccc(NC(=O)c4cccnc4)c3)nc2c1 | > 100 µM (inactive) | – | > 100 µM
NC(=O)CSC1=Nc2ccccc2C2=NC(CC(=O)NCc3cccs3)C(=O)N12 (stereo not drawn) | > 100 µM (inactive) | – | > 100 µM
CCCCNS(=O)(=O)c1cccc(S(=O)(=O)N2CCCC2)c1 | > 100 µM (inactive) | – | > 100 µM
CC(=O)Nc1ccc(Oc2cc(C#N)c(C#N)cc2N2CCCCCC2)cc1 | > 100 µM (inactive) | – | > 100 µM
COc1ccc(C2=CSC3=NCCN23)cc1F | > 100 µM (inactive) | – | > 100 µM
COCCN1CN(S(=O)(=O)c2ccc(Cl)cc2)c2nc3ccccc3nc21 | > 100 µM (inactive) | – | > 100 µM
COc1cc(-c2nn3c(-c4ccccn4)nnc3s2)cc(OC)c1OC | > 100 µM (inactive) | – | > 100 µM

SMILES | IC50 | IC50 [1] | IC50 [2]
CN1C(=O)N(C)C(=O)C2(Cc3c(nc4ccccn4c3=O)N3CCc4ccccc4C32)C1=O (stereo not drawn) | > 100 µM (inactive) | – | > 100 µM
CC(NC(=O)CSc1nc2ccccc2c(=O)n1CCCO)c1ccccc1 (stereo not drawn) | > 100 µM (inactive) | – | > 100 µM
C=CCN1CC(c2nc3ccccc3n2Cc2cccc3ccccc23)CC1=O (stereo not drawn) | > 100 µM (inactive) | – | > 100 µM
O=C(Nc1nnc(COc2ccc(Cl)cc2)s1)c1cccs1 | > 100 µM (inactive) | – | > 100 µM
COc1ccc2c(c1)CCc1c(C(=O)N3CC4(C)CC3CC(C)(C)C4)noc1-2 (stereo not drawn) | > 100 µM (inactive) | – | > 100 µM
N#CC(C(=O)OC1CCCCC1)c1nc2ccccc2nc1N1CCOCC1 (stereo not drawn) | > 100 µM (inactive) | – | > 100 µM
O=C(CCN1CCN(Cc2ccccc2)CC1)Nc1cccc(Cl)c1 | > 100 µM (inactive) | – | > 100 µM
O=C(Nc1ccc(Cl)cn1)c1ccccc1F | > 100 µM (inactive) | – | > 100 µM
COc1ccc(NC(=O)CSc2ncnc3c2cnn3Cc2ccccc2)cc1OC | > 100 µM (inactive) | – | > 100 µM
Cc1cccc(-n2nnc3cnn(C)c3c2=O)c1 | > 100 µM (inactive) | – | > 100 µM
C=CCN(Cc1cccc(OC)c1OC)S(=O)(=O)N(C)C | > 100 µM (inactive) | – | > 100 µM
Nc1cc2c(cc1C(=O)c1ccccc1)OCCO2 | > 100 µM (inactive) | – | > 100 µM
COC(=O)c1ccc(NS(=O)(=O)N(C)C)cc1 | > 100 µM (inactive) | – | > 100 µM
CCOc1ccc(-n2cc(C(=O)N3CCC(C)CC3)c3cc(OC)c(OC)cc3c2=O)cc1 | > 100 µM (inactive) | – | > 100 µM
CCCOCC1CC2(CC(C)(c3csc(N)n3)OC2=O)C(=O)O1 (stereo not drawn) | > 100 µM (inactive) | – | > 100 µM
Oc1ccc2ccc3cccc[n+]3c2c1 | > 100 µM (inactive) | > 100 µM | > 100 µM
CCOc1ccccc1NC(=O)c1ccccc1-c1nc(-c2ccccc2)no1 | > 100 µM (inactive) | – | > 100 µM
O=C(c1ccc(Br)o1)N1CCCc2ccccc21 | > 100 µM (inactive) | – | > 100 µM
Cc1ccc(-c2nnc(COc3cccc(-n4cnnn4)c3)o2)cc1 | > 100 µM (inactive) | – | > 100 µM
CCc1cc(=O)oc2cc3oc(C)c(C)c3cc12 | > 100 µM (inactive) | – | > 100 µM
COc1ccc(C(=O)CSc2nnc(COc3ccccc3)n2Cc2ccco2)cc1 | > 100 µM (inactive) | – | > 100 µM

SMILES | IC50 | IC50 [1] | IC50 [2]
Cn1c(=O)[nH]c(=O)c2c1nc(Br)n2CCCCSc1nc2ccccc2o1 | > 100 µM (inactive) | – | > 100 µM
O=c1c2ccccc2nc(CN2CCOCC2)n1-c1ccccc1F | > 100 µM (inactive) | – | > 100 µM
CCCCCOC(=O)Cn1c(SCC(=O)Nc2ccccc2)nc2c1c(=O)[nH]c(=O)n2C | > 100 µM (inactive) | – | > 100 µM
NC(=O)Cn1c(=O)n(Cc2ccco2)c(=O)c2c3c(sc21)CCCCC3 | > 100 µM (inactive) | – | > 100 µM
CCCCn1nnnc1SCC(=O)N1CCOCC1 | > 100 µM (inactive) | – | > 100 µM
O=C1CC(O)(C(F)F)Oc2ccc3ccccc3c21 (stereo not drawn) | > 100 µM (inactive) | – | > 100 µM
Oc1cc(Cc2ccccc2)cnc1CN1CCCCC1 | > 100 µM (inactive) | – | > 100 µM
CCOC(=O)N1CCN(C(=O)c2ccc(N3CCCC3=O)cc2)CC1 | > 100 µM (inactive) | – | > 100 µM
Cc1nn(-c2ccccc2)c2c1C(c1c(C)[nH]c(C#N)c1C)C(C#N)=C(N)O2 (stereo not drawn) | > 100 µM (inactive) | – | > 100 µM
CCCC(CCC(=O)NC1CCCCC1)C(=O)O (stereo not drawn) | > 100 µM (inactive) | – | > 100 µM
CC(=O)Nc1ccc(OCC(O)CN2CCN(S(=O)(=O)c3ccc(NC(C)=O)cc3)CC2)cc1 (stereo not drawn) | > 100 µM (inactive) | – | > 100 µM
COCC(=O)Nc1cc(OC)c(Cl)cc1OC | > 100 µM (inactive) | – | > 100 µM
Cc1cc(C)n(-c2cc(=O)n(C)c(=O)n2C)n1 | > 100 µM (inactive) | – | > 100 µM
COc1ccc(OC)c(N/C(C)=C/C(=O)c2ccc(C)o2)c1 | > 100 µM (inactive) | > 100 µM | > 100 µM
CC(=O)c1cnc(Nc2nc(C)c3cc(C)c(C)cc3n2)nc1C | > 100 µM (inactive) | – | > 100 µM
c1ccc2c(c1)CNc1ccccc1O2 | > 100 µM (inactive) | – | > 100 µM
O=C(Nc1ccccc1N1CCN(C(=O)c2ccccc2)CC1)c1cc2ccccc2o1 | > 100 µM (inactive) | – | > 100 µM
CCOc1ccccc1N1CC(C(=O)N2CCc3ccccc32)CC1=O (stereo not drawn) | > 100 µM (inactive) | – | > 100 µM
CCC(=O)NCCSc1c[nH]c2ccccc12 | > 100 µM (inactive) | – | > 100 µM
CC(NC(=O)Nc1ccc(F)cc1F)c1ccncc1 (stereo not drawn) | > 100 µM (inactive) | – | > 100 µM
COc1ccc(OC)c(N(CC(=O)Nc2ccc(NC(C)=O)cc2)S(C)(=O)=O)c1 | > 100 µM (inactive) | – | > 100 µM

SMILES | IC50 | IC50 [1] | IC50 [2]
CN1CCc2nc(SCCOc3ccccc3)c(C#N)cc2C1 | > 100 µM (inactive) | – | > 100 µM
Cc1[nH]c(=O)c(C#N)c2c1CSC(C)(C)C2 | > 100 µM (inactive) | – | > 100 µM
Cc1cc(=O)[nH]c(SCc2cc(Cl)ccc2OC(F)F)n1 | > 100 µM (inactive) | – | > 100 µM
CCOCCCNC(=O)c1c[nH]c2ccc(C)cc2c1=O | > 100 µM (inactive) | – | > 100 µM
Cc1cc(C)cc(NS(=O)(=O)c2ccc3[nH]c(=O)[nH]c3c2)c1 | > 100 µM (inactive) | – | > 100 µM
CC1Cc2ccccc2N1C(=O)Cn1c(=O)cc(O)c2ccccc21 (stereo not drawn) | > 100 µM (inactive) | – | > 100 µM
COc1ccc2[nH]c(=O)c(CN(C(=O)c3cccnc3)c3ccc(C)cc3)cc2c1 | > 100 µM (inactive) | – | > 100 µM
CCC(C)Oc1cccc(OCCCCN2C(=O)NC(C)(C)C2=O)c1 (stereo not drawn) | > 100 µM (inactive) | – | > 100 µM
Cc1cccc2cc3c(NC(=O)c4ccccn4)nn(C)c3nc12 | > 100 µM (inactive) | – | 64.2 µM
CCC(C(=O)NC1CCCC1)N(C(=O)c1snc(C(N)=O)c1N)c1ccc2c(c1)OCCO2 (stereo not drawn) | > 100 µM (inactive) | – | > 100 µM
CC(C)C(NC(=O)c1ccccc1)C(=O)NC1=NCCS1 (stereo not drawn) | > 100 µM (inactive) | – | > 100 µM
CCOC(=O)c1sc(N)c(C#N)c1CSc1nc2ccc(C)cc2[nH]1 | > 100 µM (inactive) | – | > 100 µM
CC(C)CCNC1=NCCCCC1 | > 100 µM (inactive) | – | > 100 µM
COc1ccc(C2=CC(c3sccc3C)n3nnnc3N2)cc1 (stereo not drawn) | > 100 µM (inactive) | – | > 100 µM
CCOC(=O)C1(CCSC)NC(c2ccco2)C2C(=O)N(C)C(=O)C21 (stereo not drawn) | > 100 µM (inactive) | – | > 100 µM
Cc1ccc(C)c(N2CCN(S(=O)(=O)c3ccc4[nH]c(=O)c(=O)[nH]c4c3)CC2)c1 | > 100 µM (inactive) | – | > 100 µM
CNC(=O)Cn1nc(-c2ccc(C)c(S(=O)(=O)N(C)C)c2)c2ccccc2c1=O | > 100 µM (inactive) | – | > 100 µM
CCOC(=O)C1CCCN(C(=O)C(C)Oc2ccc(Cl)cc2Cl)C1 (stereo not drawn) | > 100 µM (inactive) | – | > 100 µM
